In ChEMBL document CHEMBL1782045, “Discovery, synthesis, and investigation of the antitumor activity of novel piperazinylpyrimidine derivatives” (Eur J Med Chem, 2011):

What was measured:
UACC-257 = experiment: Cytotoxicity against human UACC257 cells after 48 hrs by sulforhodamine B assay; type: cell-based; settings: uacc-257, 48 h
UACC-62 = experiment: Cytotoxicity against human UACC62 cells after 48 hrs by sulforhodamine B assay; type: cell-based; settings: uacc-62, 48 h
A498 = experiment: Cytotoxicity against human A498 cells after 48 hrs by sulforhodamine B assay; type: cell-based; settings: a498, 48 h
ACHN = experiment: Cytotoxicity against human ACHN cells after 48 hrs by sulforhodamine B assay; type: cell-based
RXF 393 [1] = experiment: Cytotoxicity against human RXF393 cells after 48 hrs by sulforhodamine B assay; type: cell-based; settings: rxf 393, 48 h
SN12C [2] = experiment: Cytotoxicity against human SN12C cells after 48 hrs by sulforhodamine B assay; type: cell-based
K562 = experiment: Growth inhibition of human K562 cells after 48 hrs by sulforhodamine B assay; type: functional; settings: K562, 48 h
BT-549 = experiment: Cytotoxicity against human BT549 cells after 48 hrs by sulforhodamine B assay; type: cell-based; settings: bt-549, 48 h
T47D = experiment: Cytotoxicity against human T47D cells after 48 hrs by sulforhodamine B assay; type: cell-based
[3] = target: Casein kinase I isoform gamma-2 (Homo sapiens) (UniProt P78368); experiment: Binding affinity to human CSNK1G2 at 10 uM incubated for 1 hr by kinase binding assay relative to untreated control
[4] = target: Epithelial discoidin domain-containing receptor 1 (Homo sapiens) (UniProt Q08345); experiment: Binding affinity to human DDR1 at 10 uM incubated for 1 hr by kinase binding assay relative to untreated control
NCI-H522 [5] = experiment: Growth inhibition of human NCI-H522 cells after 48 hrs by sulforhodamine B assay; type: functional; settings: NCI-H522, 48 h
SF-539 [6] = experiment: Growth inhibition of human SF539 cells after 48 hrs by sulforhodamine B assay; type: functional; settings: SF-539, 48 h
SNB-19 [7] = experiment: Growth inhibition of human SNB19 cells after 48 hrs by sulforhodamine B assay; type: functional; settings: SNB-19, 48 h
SNB-75 [8] = experiment: Growth inhibition of human SNB75 cells after 48 hrs by sulforhodamine B assay; type: functional; settings: SNB-75, 48 h
OVCAR-5 = experiment: Growth inhibition of human OVCAR5 cells after 48 hrs by sulforhodamine B assay; type: functional; settings: OVCAR-5, 48 h
[9] = test system: Mast/stem cell growth factor receptor Kit (Homo sapiens), P10721 [D816H]; experiment: Binding affinity to human KIT D816H mutant at 10 uM incubated for 1 hr by kinase binding assay relative to untreated control
[10] = target: T1, Mitogen-activated protein kinase 12 (Homo sapiens) (UniProt P53778); experiment: Binding affinity to human p38-gamma at 10 uM incubated for 1 hr by kinase binding assay relative to untreated control
T1 sequence (whole entry): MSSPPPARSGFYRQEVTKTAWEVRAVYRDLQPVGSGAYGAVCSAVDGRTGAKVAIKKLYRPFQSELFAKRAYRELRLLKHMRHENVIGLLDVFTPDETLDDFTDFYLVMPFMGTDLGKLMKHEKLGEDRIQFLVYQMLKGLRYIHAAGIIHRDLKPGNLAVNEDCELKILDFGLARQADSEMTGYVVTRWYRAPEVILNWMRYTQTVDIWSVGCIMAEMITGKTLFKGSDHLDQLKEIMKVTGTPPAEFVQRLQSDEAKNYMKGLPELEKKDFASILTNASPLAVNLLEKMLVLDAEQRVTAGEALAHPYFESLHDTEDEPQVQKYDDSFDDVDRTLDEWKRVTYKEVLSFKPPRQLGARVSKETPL

[11] = target: Platelet-derived growth factor receptor beta (Homo sapiens) (UniProt P09619); experiment: Binding affinity to human PDGFRB at 10 uM incubated for 1 hr by kinase binding assay relative to untreated control
RXF 393 [12] = experiment: Growth inhibition of human RXF393 cells after 48 hrs by sulforhodamine B assay; type: functional; settings: RXF 393, 48 h
SN12C [13] = experiment: Growth inhibition of human SN12C cells after 48 hrs by sulforhodamine B assay; type: functional
HL-60(TB) = experiment: Cytotoxicity against human HL-60(TB) cells after 48 hrs by sulforhodamine B assay; type: cell-based
[14] = target: Receptor-type tyrosine-protein kinase FLT3 (Homo sapiens) (UniProt P36888); experiment: Inhibition of human FLT3 using gamma-33P-ATP as substrate assessed as enzyme functional activity at 1 uM by scintillation counting relative to untreated control; set-up: scale not given: the % may be the effect or the level left
NCI-H322M = experiment: Cytotoxicity against human NCI-H322M cells after 48 hrs by sulforhodamine B assay; type: cell-based
NCI-H522 [15] = experiment: Cytotoxicity against human NCI-H522 cells after 48 hrs by sulforhodamine B assay; type: cell-based; settings: nci-h522, 48 h
HCT-15 = experiment: Cytotoxicity against human HCT15 cells after 48 hrs by sulforhodamine B assay; type: cell-based; settings: hct-15, 48 h
HT-29 = experiment: Cytotoxicity against human HT-29 cells after 48 hrs by sulforhodamine B assay; type: cell-based; settings: ht-29, 48 h
SF-268 = experiment: Cytotoxicity against human SF268 cells after 48 hrs by sulforhodamine B assay; type: cell-based; settings: sf-268, 48 h
SF-539 [16] = experiment: Cytotoxicity against human SF539 cells after 48 hrs by sulforhodamine B assay; type: cell-based; settings: sf-539, 48 h
SNB-19 [17] = experiment: Cytotoxicity against human SNB19 cells after 48 hrs by sulforhodamine B assay; type: cell-based; settings: snb-19, 48 h
SNB-75 [18] = experiment: Cytotoxicity against human SNB75 cells after 48 hrs by sulforhodamine B assay; type: cell-based; settings: snb-75, 48 h
LOX IMVI = experiment: Cytotoxicity against human LOXIMVI cells after 48 hrs by sulforhodamine B assay; type: cell-based

Sequence of Casein kinase I isoform gamma-2 (Homo sapiens) (P78368 whole entry, looked up, the tested form may be a part, canonical isoform): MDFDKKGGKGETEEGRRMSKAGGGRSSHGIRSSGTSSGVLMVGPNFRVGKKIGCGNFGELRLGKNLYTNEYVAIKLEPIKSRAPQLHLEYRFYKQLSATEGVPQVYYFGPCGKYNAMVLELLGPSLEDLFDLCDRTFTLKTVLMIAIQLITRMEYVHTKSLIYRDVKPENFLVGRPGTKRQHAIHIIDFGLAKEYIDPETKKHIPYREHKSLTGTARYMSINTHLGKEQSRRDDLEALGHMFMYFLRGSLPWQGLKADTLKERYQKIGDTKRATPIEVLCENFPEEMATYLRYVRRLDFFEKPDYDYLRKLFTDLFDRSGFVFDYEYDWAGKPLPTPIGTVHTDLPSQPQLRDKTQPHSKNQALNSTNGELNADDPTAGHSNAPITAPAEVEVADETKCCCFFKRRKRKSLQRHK
Sequence of Mast/stem cell growth factor receptor Kit (Homo sapiens), P10721 [D816H] (P10721 whole entry D816H): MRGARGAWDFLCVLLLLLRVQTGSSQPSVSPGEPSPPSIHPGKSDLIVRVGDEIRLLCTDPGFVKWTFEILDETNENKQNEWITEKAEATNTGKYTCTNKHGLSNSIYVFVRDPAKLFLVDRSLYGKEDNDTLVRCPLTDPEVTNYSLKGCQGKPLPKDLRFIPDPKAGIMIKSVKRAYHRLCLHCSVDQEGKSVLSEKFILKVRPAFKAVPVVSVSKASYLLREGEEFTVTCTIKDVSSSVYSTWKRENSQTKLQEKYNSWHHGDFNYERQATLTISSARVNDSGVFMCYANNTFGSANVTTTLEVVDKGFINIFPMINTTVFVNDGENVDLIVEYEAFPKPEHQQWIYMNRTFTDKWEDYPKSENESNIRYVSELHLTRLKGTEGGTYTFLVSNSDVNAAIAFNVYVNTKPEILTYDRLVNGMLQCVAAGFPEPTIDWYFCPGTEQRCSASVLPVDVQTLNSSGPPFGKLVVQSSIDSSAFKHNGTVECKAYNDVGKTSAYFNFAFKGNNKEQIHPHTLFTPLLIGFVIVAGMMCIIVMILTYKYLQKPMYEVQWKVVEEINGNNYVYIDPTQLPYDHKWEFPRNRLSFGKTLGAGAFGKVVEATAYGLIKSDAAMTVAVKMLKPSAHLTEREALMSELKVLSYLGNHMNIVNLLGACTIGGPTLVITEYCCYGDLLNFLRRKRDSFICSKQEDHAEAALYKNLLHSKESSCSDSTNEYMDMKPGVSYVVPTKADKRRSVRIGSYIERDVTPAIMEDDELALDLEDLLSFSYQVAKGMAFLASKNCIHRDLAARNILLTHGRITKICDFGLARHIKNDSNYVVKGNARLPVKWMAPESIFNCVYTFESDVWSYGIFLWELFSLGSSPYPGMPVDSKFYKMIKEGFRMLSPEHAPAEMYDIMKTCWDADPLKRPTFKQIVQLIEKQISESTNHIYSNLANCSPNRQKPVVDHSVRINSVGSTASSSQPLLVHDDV
Sequence of Receptor-type tyrosine-protein kinase FLT3 (Homo sapiens) (P36888 whole entry): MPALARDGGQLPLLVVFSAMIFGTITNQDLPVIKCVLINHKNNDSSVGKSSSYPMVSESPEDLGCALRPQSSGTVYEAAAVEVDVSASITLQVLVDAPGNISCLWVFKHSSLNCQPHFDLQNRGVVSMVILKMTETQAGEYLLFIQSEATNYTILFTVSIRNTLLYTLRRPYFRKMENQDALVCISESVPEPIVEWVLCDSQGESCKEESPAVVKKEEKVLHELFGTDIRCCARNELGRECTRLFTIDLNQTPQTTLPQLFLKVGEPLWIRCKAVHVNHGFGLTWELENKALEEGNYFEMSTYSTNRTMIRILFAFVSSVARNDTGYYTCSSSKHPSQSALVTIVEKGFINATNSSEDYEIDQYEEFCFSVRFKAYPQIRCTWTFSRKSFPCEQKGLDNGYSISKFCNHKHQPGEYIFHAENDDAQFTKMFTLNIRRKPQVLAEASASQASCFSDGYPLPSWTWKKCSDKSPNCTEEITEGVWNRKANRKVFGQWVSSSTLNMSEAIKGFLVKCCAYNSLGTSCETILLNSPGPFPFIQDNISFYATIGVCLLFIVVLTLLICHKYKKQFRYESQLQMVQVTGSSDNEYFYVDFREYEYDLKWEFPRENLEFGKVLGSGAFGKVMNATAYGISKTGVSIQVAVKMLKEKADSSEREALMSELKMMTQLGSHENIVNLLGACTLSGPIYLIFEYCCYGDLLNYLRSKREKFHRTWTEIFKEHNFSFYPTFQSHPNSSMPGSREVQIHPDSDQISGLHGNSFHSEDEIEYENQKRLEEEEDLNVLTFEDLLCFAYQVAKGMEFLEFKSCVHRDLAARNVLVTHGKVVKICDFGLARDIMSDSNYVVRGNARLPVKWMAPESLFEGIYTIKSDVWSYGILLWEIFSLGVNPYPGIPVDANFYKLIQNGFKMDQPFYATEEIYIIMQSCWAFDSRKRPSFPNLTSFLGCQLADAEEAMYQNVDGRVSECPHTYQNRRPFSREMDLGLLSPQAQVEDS
Sequence of Epithelial discoidin domain-containing receptor 1 (Homo sapiens) (Q08345 whole entry, the tested form may be a part): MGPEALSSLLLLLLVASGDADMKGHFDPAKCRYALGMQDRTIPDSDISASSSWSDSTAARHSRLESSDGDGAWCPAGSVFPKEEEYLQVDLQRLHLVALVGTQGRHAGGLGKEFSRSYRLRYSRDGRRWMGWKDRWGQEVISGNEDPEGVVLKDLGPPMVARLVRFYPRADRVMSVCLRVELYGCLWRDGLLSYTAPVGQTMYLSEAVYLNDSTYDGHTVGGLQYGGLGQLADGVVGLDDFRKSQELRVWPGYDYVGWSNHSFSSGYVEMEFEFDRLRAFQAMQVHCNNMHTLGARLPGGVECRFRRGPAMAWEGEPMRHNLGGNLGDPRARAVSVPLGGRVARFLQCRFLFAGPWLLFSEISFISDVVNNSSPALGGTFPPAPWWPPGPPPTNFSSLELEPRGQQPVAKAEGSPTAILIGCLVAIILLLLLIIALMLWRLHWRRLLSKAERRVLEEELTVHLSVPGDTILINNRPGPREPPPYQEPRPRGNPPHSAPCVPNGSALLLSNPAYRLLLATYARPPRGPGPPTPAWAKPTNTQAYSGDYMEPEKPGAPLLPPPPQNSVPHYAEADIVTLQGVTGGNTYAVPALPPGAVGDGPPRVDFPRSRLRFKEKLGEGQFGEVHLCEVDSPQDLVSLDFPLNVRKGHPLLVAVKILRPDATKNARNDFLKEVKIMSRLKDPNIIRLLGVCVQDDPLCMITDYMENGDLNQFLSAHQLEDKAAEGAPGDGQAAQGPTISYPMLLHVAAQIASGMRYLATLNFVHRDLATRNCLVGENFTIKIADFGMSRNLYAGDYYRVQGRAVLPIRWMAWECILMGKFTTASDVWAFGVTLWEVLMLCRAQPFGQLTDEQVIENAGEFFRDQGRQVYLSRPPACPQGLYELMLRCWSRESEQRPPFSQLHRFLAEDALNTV
Sequence of Platelet-derived growth factor receptor beta (Homo sapiens) (P09619 whole entry): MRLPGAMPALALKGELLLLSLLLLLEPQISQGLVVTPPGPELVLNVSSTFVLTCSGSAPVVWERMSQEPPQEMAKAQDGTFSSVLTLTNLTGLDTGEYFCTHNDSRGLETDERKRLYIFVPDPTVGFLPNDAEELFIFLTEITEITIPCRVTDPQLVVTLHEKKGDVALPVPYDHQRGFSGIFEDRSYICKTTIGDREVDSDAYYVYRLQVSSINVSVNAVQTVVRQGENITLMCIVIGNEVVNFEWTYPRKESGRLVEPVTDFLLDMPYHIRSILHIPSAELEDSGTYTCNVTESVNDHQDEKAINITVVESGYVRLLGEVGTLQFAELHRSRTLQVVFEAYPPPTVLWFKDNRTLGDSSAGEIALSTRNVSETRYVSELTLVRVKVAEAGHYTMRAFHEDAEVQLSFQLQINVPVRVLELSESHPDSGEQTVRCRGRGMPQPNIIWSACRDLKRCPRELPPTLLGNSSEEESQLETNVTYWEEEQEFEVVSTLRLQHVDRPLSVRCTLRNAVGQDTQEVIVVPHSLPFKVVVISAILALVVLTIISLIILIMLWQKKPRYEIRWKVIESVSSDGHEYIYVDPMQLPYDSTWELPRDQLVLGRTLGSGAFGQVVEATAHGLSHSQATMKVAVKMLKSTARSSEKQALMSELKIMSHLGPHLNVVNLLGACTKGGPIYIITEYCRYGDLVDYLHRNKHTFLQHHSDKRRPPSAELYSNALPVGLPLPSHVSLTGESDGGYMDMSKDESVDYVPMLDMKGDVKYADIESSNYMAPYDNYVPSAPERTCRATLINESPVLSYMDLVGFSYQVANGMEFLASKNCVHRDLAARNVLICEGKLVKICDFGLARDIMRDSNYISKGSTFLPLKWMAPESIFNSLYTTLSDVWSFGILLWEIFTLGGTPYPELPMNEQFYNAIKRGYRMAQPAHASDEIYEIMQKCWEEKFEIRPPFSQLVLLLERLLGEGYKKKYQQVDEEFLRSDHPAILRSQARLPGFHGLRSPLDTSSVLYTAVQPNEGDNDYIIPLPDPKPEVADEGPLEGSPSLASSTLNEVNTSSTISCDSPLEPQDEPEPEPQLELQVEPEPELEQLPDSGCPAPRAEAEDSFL

Compound	LC50 (UACC-257) [µM]	LC50 (UACC-62) [µM]	LC50 (A498) [µM]	LC50 (ACHN) [µM]	LC50 (RXF 393 [1]) [µM]	LC50 (SN12C [2]) [µM]	TGI (K562) [µM]	LC50 (BT-549) [µM]	LC50 (T47D) [µM]	Activity [3] [%]	Activity [4] [%]	TGI (NCI-H522 [5]) [µM]	TGI (SF-539 [6]) [µM]	TGI (SNB-19 [7]) [µM]	TGI (SNB-75 [8]) [µM]	TGI (OVCAR-5) [µM]	Activity [9] [%]	Activity [10] [%]	Activity [11] [%]	TGI (RXF 393 [12]) [µM]	also measured
O=C(c1cccc(Nc2ncnc3ccccc23)c1)N1CCN(c2ncc(Cc3ccccc3)cn2)CC1	5.37	5.37	> 100	> 100	> 100	> 100	2.23	5.37	5.62	43	28	2.09	4.9	8.91	5.89	5.75	> 50	25	> 50	11.5	TGI (SN12C [13]): 7.08 µM; LC50 (HL-60(TB)): 6.76 µM; Activity [14]: 95%; LC50 (NCI-H322M): > 100 µM; LC50 (NCI-H522 [15]): 5.13 µM; LC50 (HCT-15): 9.33 µM; LC50 (HT-29): > 100 µM; LC50 (SF-268): 5.01 µM; LC50 (SF-539 [16]): > 100 µM; LC50 (SNB-19 [17]): > 100 µM; LC50 (SNB-75 [18]): > 100 µM; LC50 (LOX IMVI): 5.13 µM
CCc1cnc(N2CCN(C(=O)c3ccc(CNc4ncnc5ccccc45)cc3)CC2)nc1	> 100	> 100	> 100	> 100	> 100	> 100	> 100	> 100	> 100	18	> 50	55.4	> 100	> 100	58.2	> 100	> 50	> 50	> 50	41.6	TGI (SN12C [13]): 59 µM; LC50 (HL-60(TB)): > 100 µM; Activity [14]: 80%; LC50 (NCI-H322M): > 100 µM; LC50 (NCI-H522 [15]): > 100 µM; LC50 (HCT-15): > 100 µM; LC50 (HT-29): > 100 µM; LC50 (SF-268): > 100 µM; LC50 (SF-539 [16]): > 100 µM; LC50 (SNB-19 [17]): > 100 µM; LC50 (SNB-75 [18]): > 100 µM; LC50 (LOX IMVI): 97.3 µM
c1ccc(Cc2cnc(N3CCN(c4ncnc5ccccc45)CC3)nc2)cc1	41.4	63.1	50.1	> 100	> 100	54.8	> 100	43	> 100	> 50	47	40.3	28.5	> 100	78.2	69.8	30	> 50	4.1	57.9	TGI (SN12C [13]): 24.4 µM; LC50 (HL-60(TB)): > 100 µM; Activity [14]: 74%; LC50 (NCI-H322M): > 100 µM; LC50 (NCI-H522 [15]): > 100 µM; LC50 (HCT-15): > 100 µM; LC50 (HT-29): 79.2 µM; LC50 (SF-268): > 100 µM; LC50 (SF-539 [16]): 56.1 µM; LC50 (SNB-19 [17]): > 100 µM; LC50 (SNB-75 [18]): > 100 µM; LC50 (LOX IMVI): 44.3 µM
